Literature values, collected in patent publication US9855260B2, “Quinolinone derivatives” (GlaxoSmithKline LLC, priority 2011, dated 2018).

Tested on: ob/ob and db/db mice
Settings: 8 day administration

For `NC(=O)c1ncn([C@@H]2O[C@H](CO)[C@@H](O)[C@H]2O)c1N` [AICAR, 5-aminoimidazole-4-carboxamide-1(beta)-D-ribofuranoside], which reduces blood glucose is on record?
Its reduces blood glucose is 35%.
